Assay results reported in ChEMBL document CHEMBL5038625, “Application of the dual-tail approach for the design and synthesis of novel Thiopyrimidine-Benzenesulfonamide hybrids as selective carbonic anhydrase inhibitors” (Eur J Med Chem, 2022).

Tested on: MDA-MB-231
Experiment: Cell cycle arrest in human MDA-MB-231 cells assessed as accumulation at sub G1 phase incubated for 48 hrs by propidium iodide staining based flow cytometric analysis (reference value: 0.2 %)
Type: functional

COc1ccc(OC)c(-c2nc(SCC(=O)c3ccc(Br)cc3)nc(Nc3ccc(S(N)(=O)=O)cc3)c2C#N)c1
Activity: 11.52%
